Experimental data published in patent US11524956B2, “Alkyne substituted quinazoline compound and methods of use” (Newgen Therapeutics, Inc., priority 2011, dated 2022).

Assays:
[1] = Rat pharmacokinetics studies (plasma); format: in vivo, Sprague Dawley rats
Method: Sample preparation: The test article each was dissolved in 10% DMSO and 90% of (40% HP-β-CD in deionized water) to yield concentration at 2 mg/mL for intravenous and oral administration.
Method development and plasma samples analysis were performed by Analytical Sciences Division of the Testing Facility by means of LC-MS/MS. The analytical results were confirmed using quality control samples for intra-assay variation (within day variation). The accuracy of >66% of the quality control samples was between 80-120% of the known value(s).
Each group consisted of 3 male Sprague Dawley rats (7-8 week old, 200-300 g body weight). The test articles were administered by a single bolus intravenous injection via the lateral tail vein or via oral gavage.
Blood samples (approximately 300 μl) were collected via retro-orbital puncture after anaesthesia using mixed gas (CO2:O2=7:3) into tubes containing EDTA-K3 anticoagulant at appropriate time points. 10 time points (Groups 1-2): Pre-dose and post-dose at 5 min, 15 min, 30 min, 1 h, 2 h, 4 h, 6 h, 8 h and 24 h.
Analysis: The PK blood samples were centrifuged at approximately 8000 rpm for (3 minutes at 2-8° C. and the resulting plasma were separated and stored frozen at approximately −80° C. (following separation, the plasma may be initially placed on ice prior to being stored in the −80° C. freezer). All the plasma samples were labeled with detailed information such as study number, animal number, matrix, time points of collection and date of collection.
Standard set of parameters including Area Under the Curve (AUC(0-t) and AUC(0-∞)), elimination half-live (T1/2), maximum plasma concentration (Cmax), time to reach maximum plasma concentration (Tmax), clearance (CL), and volume of distribution (Vz) will be calculated using noncompartmental analysis modules in FDA certified pharmacokinetic program WinNonlin Professional v5.2 (Pharsight, USA) by the Study Director. Furthermore, the Bioavailability will be estimated using the following formula:
• AUC(0-t) Area under the curve from the time of dosing to the last measurable concentration • AUC(0-∞) Area under the curve from the time of dosing extrapolated to infinity, based on the last observed concentration • CL Total body clearance, CL=Dose/AUC • Cmax Maximum observed concentration, occurring at Tmax • F Bioavailability • MRT(0-∞) Mean residence time from the time of dosing to infinity • Tmax Time of maximum observed concentration • T1/2 Terminal half-life=In(2)/λz • Vz Volume of distribution based on the terminal phase

EGFR kinase = EGFR kinase (Homo sapiens (Human), UniProt P00533); assay: Kinase assay for EGFR (TR-FRET, LanthaScreen); format: biochemical; settings: read-out: Kinase inhibition IC50 (nM) EGFR
EGFR kinase, sequence (P00533 668-1210): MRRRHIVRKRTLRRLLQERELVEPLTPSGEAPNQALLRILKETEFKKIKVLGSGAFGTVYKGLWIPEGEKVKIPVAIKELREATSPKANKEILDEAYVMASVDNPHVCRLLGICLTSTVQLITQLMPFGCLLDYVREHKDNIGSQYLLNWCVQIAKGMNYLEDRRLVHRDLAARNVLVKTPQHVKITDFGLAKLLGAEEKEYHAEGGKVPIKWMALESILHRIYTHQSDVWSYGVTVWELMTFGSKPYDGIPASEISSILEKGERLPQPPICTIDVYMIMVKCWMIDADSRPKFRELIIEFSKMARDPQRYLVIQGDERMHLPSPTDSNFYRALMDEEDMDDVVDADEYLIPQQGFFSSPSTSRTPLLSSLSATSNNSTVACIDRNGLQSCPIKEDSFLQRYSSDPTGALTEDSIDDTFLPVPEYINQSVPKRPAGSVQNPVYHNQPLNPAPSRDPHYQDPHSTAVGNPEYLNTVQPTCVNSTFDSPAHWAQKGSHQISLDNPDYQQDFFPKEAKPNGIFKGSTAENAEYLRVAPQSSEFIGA
Method: The extent to which the compounds of the present invention modulate EGFR kinase activity can be determined using time-resolved Fret (TR-FRET) assay (LanthaScreen® kinase activity assay, from InVitrogen). The assay employs EGFR kinase (PV3872, Invitrogen), Tb-Py20 antibody (PV3552, InVitrogen) and fluorescein-poly GT (PV3610, InVitrogen).
The assay is performed in a Black 384-well plate (available from Corning). EGFR kinase (is diluted in TR-FRET Dilution Buffer (PV3189, InVitrogen) at concentration of 0.4 ug/ml as stock solution, and then 2-fold serial diluted. Addition of 1 mM ATP initiated the reaction, and the reaction is incubated for […] at room temperature. 10 μL of the Tb-antibody (from InVitrogen)+EDTA (from InVitrogen) solution prepared was added to each well of the assay plate and mix briefly, and incubated for 30 min. The signal is monitored by using M5 microplate reader (Ex=332 nm, Em=488 nm and 518 nm). Each compound is tested in duplicate wells. EGFR without compound is used as control. Staurosporine (available from Sigma) is used as positive control compound. Inhibition was calculated as percentage of the EGFR activity (without compound).

[2] = male, Sprague Dawley, rat plasma, IV 1 mg/Kg
[3] = male, Sprague Dawley, rat plasma, PO 5 mg/Kg

`CN(C)C/C=C/C(=O)Nc1cc2c(Nc3ccc(F)c(Cl)c3)ncnc2cc1C#C[C@@H]1[C@H]2COC[C@@H]12` [Example 4, (E)-N-(4-(3-chloro-4-fluorophenylamino)-7-(2-((1R,5S,6s)-3-oxa-bicyclo[3.1.0]hexan-6-yl)ethynyl)quinazolin-6-yl)-4-(dimethylamino)but-2-enamide] showed a bioavailability ([1]; male, Sprague Dawley, plasma, rat, PO 5 mg/Kg, using AUC(0-t) instead of AUC(0-∞), read-out: calculated oral bioavailability) of 80.5%, an AUC(0-inf) [1, 2] of 158 ng·h/mL and an AUC(0-t) [1, 2] of 135 ng·h/mL. For the same molecule, the Cmax [1, 2] was 44.4 ng/mL, the clearance [1, 2] was 105 mL/min/kg and the half-life [1, 2] was 7.48 h. For the same molecule, the Vd ([1]; male, Sprague Dawley, rat plasma, IV 1 mg/Kg, read-out: Vz) was 20.5 L/kg, the AUC(0-inf) [1, 3] was 555 ng·h/mL and the AUC(0-t) [1, 3] was 542 ng·h/mL. The Cmax [1, 3] was 39.3 ng/mL, the half-life [1, 3] was 14.9 h and the CL ([1]; rat plasma, PO 5 mg/Kg) was 150 mL/min/kg. For the same molecule, the Vz ([1]; rat plasma, PO 5 mg/Kg) was 58.1 L/kg, the F ([1]; rat, IV 1 mg/Kg) was 100% and the F ([1]; rat, PO 5 mg/Kg, from AUC(0-∞)) was 70.1%. The “oral bioavailability and brain penetration (qualitative)” value ([1]; rat, oral administration) was “good oral bioavailability and brain penetration” and the IC50 (EGFR kinase) was less than 100 nM.
